Tested on: histone 3 and 4
Test: Immunoblot of acetyl histone H3 and H4 in MM.1S cells
Type: cell-based, human
Conditions: 0.1 μM, 24-hr
Description: Growth inhibitory and pro-apoptotic properties of AR-42 as a single agent treatment agent have been reported previously in numerous malignancies, including MM. Because of the potent immunomodulatory effects observed with classical pan-HDACi's, immunology-related gene networks altered upon AR-42 treatment in MM cells were investigated using nCounter technology to analyze the effects of AR-42 on the expression of 511 human genes in MM.1S cells following 24-hr treatment with 0.1 μM AR-42.
Cells were harvested by centrifugation, washed with PBS and lysed using buffer composed of 50 mM Tris (pH 7.5), 150 mM NaCl, 10% glycerol, 1.0% NP-40, 0.1% SDS, supplemented with protease and phosphatase inhibitors. Protein concentrations were estimated by Bradford assay and equivalent quantities of the lysates were resolved on 4-20% Tris-HCl SDS-PAGE TGX gels (Bio-Rad). Proteins were transferred to nitrocellulose membranes and stained for acetyl-histone H3 (Milipore), acetyl-histone H4 (Milipore), IGF2BP1 (Cell Signaling Technology), IGF2BP3 (IMP-3, Santa Cruz Biotechnology), CD44 (Santa Cruz Biotechnology), CD48 (Abcam), Drosha (Cell Signaling Technology), or glyceraldehyde 3-phosphate dehydrogenase (GAPDH, Cell Signaling Technology), followed by anti-mouse, or anti-rabbit IgG-HRP (GE Healthcare). Signals were developed using Pierce ECL Western Blotting Substrate (Thermo Fisher Scientific).

Compound: CC(C)[C@H](C(=O)Nc1ccc(C(=O)NO)cc1)c1ccccc1 [AR-42, (S)-N-hydroxy-4-(3-methyl-2-phenylbutanamido)benzamide]
- hyperacetylation of histone 3 and 4: detectable hyperacetylation

From US10022342B2, “Methods and compositions for treating multiple myeloma” (Ohio State Innovation Foundation, priority 2015, dated 2018)
